Test results published in patent publication US9499729B2, “Compositions and methods containing fluorine substituted olefins” (HONEYWELL INTERNATIONAL INC., priority 2006, dated 2016).

Columns and labels:
[1] = Solubility of Artemisinin in the extractant, solvent added to weighed sample until dissolved; assay type: physicochemical
Text: A medicament, particularly a plant-derived Artemisinin which is an anti-malarial drug, is extracted from the Artemisia annua plant. A sample of Artemisinin was weighed into a vial.

[2] = Compatibility/stability of refrigerant with lubricating oil in contact with aluminum, copper and steel coupons, sealed tube, one week, visual observation; assay type: physicochemical; conditions: one week at 350° C., liquid contents turn black
Procedure: The compatibility of the refrigerant compounds and compositions of the present invention with PAG lubricating oils while in contact with metals used in refrigeration and air conditioning systems is tested at 350° C., representing conditions much more severe than are found in many refrigeration and air conditioning applications.
Aluminum, copper and steel coupons are added to heavy walled glass tubes. Two grams of oil are added to the tubes. The tubes are then evacuated and one gram of refrigerant is added. The tubes are put into an oven at 350° F. for one week and visual observations are made. At the end of the exposure period, the tubes are removed.
This procedure was done for the following combinations of oil and the compound of the present invention: • a) HFC-1234ze and GM Goodwrench PAG oil • b) HFC1243 zf and GM Goodwrench oil PAG oil • c) HFC-1234ze and MOPAR-56 PAG oil • d) HFC-1243 zf and MOPAR-56 PAG oil • e) HFC-1225 ye and MOPAR-56 PAG oil.
Aluminum, copper and steel coupons are added to a heavy walled glass tube with mineral oil and CFC-12 and heated for one week at 350° C., as in Example 3. At the end of the exposure period, the tube is removed and visual observations are made.

[3] = Flammability / flammability limit (ASTM E-681); assay type: physicochemical
Procedure: Flammability is another important property for many applications. That is, it is considered either important or essential in many applications, including particularly in heat transfer and blowing agent applications, to use compositions which are of low flammability or are non-flammable. Thus, it is frequently beneficial to use in such compositions compounds which are nonflammable. As used herein, the term “nonflammable” refers to compounds or compositions which are determined to be nonflammable as determined in accordance with ASTM standard E-681, dated 2002, which is incorporated herein by reference. Unfortunately, many HFC's which might otherwise be desirable for used in refrigerant or foam blowing agent compositions are not nonflammable. For example, the fluoroalkane difluoroethane (HFC-152a) and the fluoroalkene 1,1,1-trifluorpropene (HFO-1243zf) are each flammable and therefore not viable for use in many applications.

[4] = Toxicity as stated by applicants (no method given)
[5] = Miscibility with refrigeration lubricants, sealed glass tubes, visual observation of liquid phases; assay type: physicochemical
Procedure: The miscibility of HFO-1225ye and HFO-1234ze with various refrigeration lubricants is tested. […] For each refrigerant/oil combination, three compositions are tested, namely 5, 20 and 50 weight percent of lubricant, with the balance of each being the compound of the present invention being tested
The lubricant compositions are placed in heavy-walled glass tubes. The tubes are evacuated, the refrigerant compound in accordance with the present invention is added, and the tubes are then sealed. The tubes are then put into an air bath environmental chamber, the temperature of which is varied from about −50° C. to 70° C. At roughly 10° C. intervals, visual observations of the tube contents are made for the existence of one or more liquid phases.

[6] = Solubility of Jasmone in the fluoroolefin, sealed glass tube, frozen and thawed; assay type: physicochemical
Procedure: The compositions of the present invention also provide advantage when used as part of, and in particular as a carrier for, flavor formulations and fragrance formulations. […] 1.73 grams of R-1234ze were added to the glass tube. The tube was then frozen and sealed. […] The solution contained 20 wt. % Jasome and 80 wt. % R-1234ze, thus establishing favorable use a carrier for flavor formulations and fragrances. It also establishes its potential as an extractant of biologically active compounds (such as Biomass) and fragrances, including from plant matter. In certain embodiments, it may be preferred to use the present composition for in extraction applications with the present fluid in its supercritical state. This an other applications of involving use of the present compositions in the supercritical or near supercritical state are described hereinafter.
Approximately 0.39 grams of Jasmone were put into a heavy walled glass tube and approximately 1.73 grams of transHFC-1233zd were added to the glass tube. The tube was then frozen and sealed. […] The solution contained about 20 wt. % Jasome and about 80 wt. % transHFCO-1233zd.
Approximately 0.39 grams of Jasmone are put into a heavy walled glass tube and approximately 1.73 grams of cisHFC-1233zd are added to the glass tube. The tube is then frozen and sealed. […] The solution contains about 20 wt. % Jasmone and about 80 wt. % cisHFCO-1233zd.

[7] = Dissolution of silicone lubricant in the solvent; assay type: physicochemical; conditions: silicone oil added to a concentration of about 10 weight percent
Procedure: A compound of Formula II, namely, transHFCO-1233zd was transferred to a glass container. A silicon lubricant, particularly a high-viscosity (12,500 cP) silicone oil, was added to the transHFCO-1233zd solvent to a concentration of about 10 weight percent.
A compound of Formula II, namely, cisHFCO-1233zd is transferred to a glass container. A silicon lubricant, particularly a high-viscosity (12,500 cP) silicone oil is added to the cisHFCO-1233zd solvent to a concentration of about 10 weight percent.
(§1) A combination of transHFCO-1233zd and trans-1,2-dichloroethylene are prepared in transHFCO-1233zd:trans-1,2-dichloroethylene weight ratios of 25:75 and 50:50. Each combination is then added to a glass container. A silicon lubricant, particularly a high-viscosity (12,500 cP) silicone oil is added to each solvent to a concentration of about 10 weight percent.
as §1, with “cisHFCO-1233zd” for “transHFCO-1233zd”, “cisHFCO-1233zd:trans-1,2-dichloroethylene” for “transHFCO-1233zd:trans-1,2-dichloroethylene”

[8] = Dissolution of synthetic PAG lubricant in the solvent; assay type: physicochemical; conditions: PAG lubricant ND-8; combinations in approximate weight ratios: /methanol 98:2, /pentane 96:4, /methanol/pentane 92:2:6
Procedure: A synthetic lubricant, specifically polyalkyleneglycol (PAG) lubricant, and more specifically a PAG consisting essentially of 2 or more oxypropylene groups and having a viscosity of from about 10 to about 200 centistokes at about 37° C. (sold under the trade designation ND-8 by Idemitsu Kosan) are added to a vial containing transHFCO-1233zd. […] The properties of the synthetic lubricant ND-8 are identified below in Table 11 below.
A synthetic lubricant, specifically polyalkyleneglycol (PAG) lubricant, and more specifically a PAG consisting essentially of 2 or more oxypropylene groups and having a viscosity of from about 10 to about 200 centistokes at about 37° C. (sold under the trade designation ND-8 by Idemitsu Kosan) are added to a vial containing cisHFCO-1233zd.
The PAG lubricant described in Example 45 above is added to vials containing, respectively, transHFCO-1233zd/methanol in an approximate 98:2 weight ratio, transHFCO-1233zd/pentane in an approximate 96:4 weight ration and transHFCO-1233zd/methanol/pentane in an approximate 92:2:6 weight ratio.
The PAG lubricant described in Example 45 above is added to vials containing, respectively, cisHFCO-1233zd/methanol in an approximate 98:2 weight ratio, cisHFCO-1233zd/pentane in an approximate 96:4 weight ration and cisHFCO-1233zd/methanol/pentane in an approximate 92:2:6 weight ratio.

In the case of `C[C@@H]1CC[C@H]2[C@@H](C)C(=O)O[C@@H]3O[C@@]4(C)CC[C@@H]1[C@]32OO4` [Artemisinin], the “solubility in cisHFCO-1233zd (soluble up to)” value ([1]; solvent cisHFCO-1233zd) is reported as “approximately 3 weight percent” and the “solubility in transHFCO-1233zd (soluble up to)” value ([1]; solvent transHFCO-1233zd) is reported as “approximately 3 weight percent”.

With `FC(F)(Cl)Cl` [CFC-12, Dichlorodifluoromethane] the “visual observation of tube contents (stability with mineral oil and metals)” value [2] was “severe decomposition”.

In the case of `FC(F)(F)C=CCl` [HCFO-1233zd, 1,1,1-trifluo-3,chloro-propene], the flammability [3] is reported as “relatively low flammability” and the toxicity [4] is reported as “relatively low toxicity”.

With `FC=C(F)C(F)(F)F` [HFO-1225ye, 1,1,1,2,3 pentafluoropropene] the “miscibility with polyalkylene glycol” value ([5]; 50 weight percent concentration of the PAG in refrigerant, at 60°) was “miscible”, the “miscibility with polyalkylene glycol” value ([5]; at 70° C., from 5 to 50 weight percent lubricant in refrigerant) was “miscible” and the “miscibility with polyalkylene glycol” value ([5]; from −20 to 50° C.) was “partially miscible”. For the same molecule, the “miscibility with polyalkylene glycol” value ([5]; temperature range of −50° C. to −30° C.) was “immiscible” and the “degree of toxicity in comparison to CF3CH═CF2 (HFO-1225zc)” value ([4]; pentafluoropropene with a hydrogen substituent on the terminal unsaturated carbon) was “relatively low degree of toxicity”.

In the case of `FC=CC(F)(F)F` [HFO-1234ze, 1,1,1,3-tetrafluoropropene], the flammability [3] is reported as “relatively low flammability” and the toxicity [4] is reported as “relatively low toxicity”.

With `CC/C=C\CC1=C(C)CCC1=O` [Jasmone] the “liquid phases of mixture with R-1234ze upon thawing” value ([6]; 0.39 grams Jasmone and 1.73 grams R-1234ze: 20 wt. % Jasmone, 80 wt. % R-1234ze) was “one liquid phase”, the “solubility in cisHFCO-1233zd (soluble up to)” value ([6]; solvent cisHFCO-1233zd, one liquid phase) was “about 20 weight percent” and the “solubility in transHFCO-1233zd (soluble up to)” value ([6]; solvent transHFCO-1233zd, one liquid phase) was “about 20 weight percent”.

In the case of `FC(F)(F)/C=C\Cl` [transHFCO-1233zd, 1,1,1-trifluo,3-chlororopropene], the “solution formed with silicone oil” value [7] is reported as “homogeneous, single-phase solution” and the “concentration of PAG at which a homogeneous, single-phase solution is formed” value [8] is reported as “greater than 10 % by weight”.
